Measurements published in patent US20260097047A1, “Small molecule inhibitors of the ribosome biogenesis factor NVL2” (Board of Regents, The University of Texas System, priority 2023, published 2026).

Test system: HCT116 cells
Assay: Cell viability assay (CellTiter-Glo, 72 hours) in HCT116 human colorectal cancer cells
Assay type: cell-based
Settings: Homo sapiens, HCT-116; Table 5; HCT116, 72 hours; read-out: Activity
In short: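 2,000 cells/well adhered overnight, then compound added by digital dispenser with DMSO normalized to 0.5%. Viability read after 72 h at 37 °C by ATP-based CellTiter-Glo luminescence. IC50 from ten-point curves baseline-corrected to vehicle, five-parameter asymmetric least-squares fit.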

Row | Compound | IC50
1 | CC#CCN1C(=O)c2ccc(F)cc2Sc2cc(Nc3nccnc3C)ccc21 [10-(But-2-yn-1-yl)-3-fluoro-7-((3-methylpyrazin-2-yl)amino)dibenzo[b,f][1,4]thiazepin-11 (10H)-one] | < 500 nM
2 | CC#CCN1C(=O)c2ccccc2Sc2cc(Nc3nccc(C#N)c3F)ccc21 [2-((10-(But-2-yn-1-yl)-11-oxo-10,11-dihydrodibenzo[b,f][1,4]thiazepin-7-yl)amino)-3-fluoroisonicotinonitrile] | < 500 nM
3 | CC#CCN1C(=O)c2ccccc2Sc2cc(Nc3nccc(C#N)n3)ccc21 [2-((10-(But-2-yn-1-yl)-11-oxo-10,11-dihydrodibenzo[b,f][1,4]thiazepin-7-yl)amino)pyrimidine-4-carbonitrile] | < 500 nM

Other lines, results leading:

Row | IC50 | Compound
4 | < 500 nM | CC#CCN1C(=O)c2ccc(F)cc2Sc2cc(Nc3ncccc3OC)ccc21 [10-(But-2-yn-1-yl)-3-fluoro-7-((3-methoxypyridin-2-yl)amino)dibenzo[b,f][1,4]thiazepin-11 (10H)-one]
5 | < 500 nM | CC#CCN1C(=O)c2ccccc2Cc2cc(Nc3ncccc3C#N)ccc21 [2-((5-(But-2-yn-1-yl)-6-oxo-6,11-dihydro-5H-dibenzo[b,e]azepin-2-yl)amino) nicotinonitrile]

Same assay, conditions: Homo sapiens, HCT-116; Table 6; HCT116, 72 hours; read-out: Activity

Row | IC50 | Compound
6 | < 500 nM | CC#CCN1C(=O)c2ccccc2Sc2cc(NC3CC(COC)C3)cnc21 (stereo not drawn) [Table 6: —CH2CCMe; 3-MeOCH2-cBu; CH/N; S, 11-(But-2-yn-1-yl)-3-((3-(methoxymethyl)cyclobutyl)amino)benzo[f]pyrido[3,2-b][1,4]thiazepin-10(11H)-one]

Same assay, conditions: Homo sapiens, HCT-116; Table 9; HCT116, 72 hours; read-out: Activity

Row | IC50 | Compound
7 | < 500 nM | CC#CCN1C(=O)c2ccccc2C(C)c2cc(NC(=O)c3ccc4oc(=O)n(C)c4c3)ccc21 (stereo not drawn) [N-(5-(But-2-yn-1-yl)-11-methyl-6-oxo-6,11-dihydro-5H-dibenzo[b,e]azepin-2-yl)-3-methyl-2-oxo-2,3-dihydrobenzo[d]oxazole-5-carboxamide]

Same assay, conditions: Table 1; HCT116, 72 hours; read-out: Activity

Row | IC50 | Compound
8 | < 500 nM | CC#CCN1C(=O)c2ccc(Cl)cc2Sc2cc(NC(=O)N3CCCCC3)ccc21

Same assay, conditions: Table 3; HCT116, 72 hours; read-out: Activity

Row | IC50 | Compound
9 | < 500 nM | CC#CCN1C(=O)c2ccccc2Sc2cc(NC(=O)NC3COC3)ccc21 [Table 3: —CH2CCMe; oxetan-3-yl; CH/CH]
10 | < 500 nM | CC#CCN1C(=O)c2ccccc2Sc2cc(NC(=O)Nc3ccc4oc(=O)n(C)c4c3)cnc21
11 | < 500 nM | CC#CCN1C(=O)c2ccccc2Sc2cc(NC(=O)NC3CC(COC)C3)cnc21 (stereo not drawn) [Table 3: —CH2CCMe; 3-MeOCH2-cBu; CH/N]
12 | < 500 nM | CC#CCN1C(=O)c2ccccc2Sc2cc(NC(=O)NC34CC(OC)(C3)C4)ccc21

Same assay, conditions: Table 4; HCT116, 72 hours; read-out: Activity

Row | IC50 | Compound
13 | < 500 nM | CC#CCN1C(=O)c2ccccc2Sc2cc(NC(=S)Nc3ccc(OC(F)F)cc3)cnc21 [Table 4: —CH2CCMe; 4-F2HCOPh; N]
14 | < 500 nM | CC#CCN1C(=O)c2ccccc2Sc2cc(NC(=S)Nc3ccc(OC)nc3)cnc21 [Table 4: —CH2CCMe; 6-MeO-pyridin-3-yl; N]

Same assay, conditions: Table 5; HCT116, 72 hours; read-out: Activity

Row | IC50 | Compound
15 | < 500 nM | Cc1cnc(C)c(Nc2cnc3c(c2)Sc2ccccc2C(=O)N3CC#CCl)n1
16 | 1000 to 5000 nM | CC#CCN1C(=O)c2ccccc2Sc2cc(Nc3ncccc3C(=O)OC)ccc21 [Methyl 2-((10-(but-2-yn-1-yl)-11-oxo-10,11-dihydrodibenzo[b,f][1,4]thiazepin-7-yl)amino) nicotinate]

Row | Compound | IC50
17 | C#CCN1C(=O)c2ccccc2Sc2cc(Nc3cccnn3)ccc21 | < 500 nM

Same assay, conditions: Table 6; HCT116, 72 hours; read-out: Activity

Row | IC50 | Compound
18 | < 500 nM | COC1CC(Nc2cnc3c(c2)Sc2ccccc2C(=O)N3CC#CCl)C1 (stereo not drawn) [Table 6: —CH2CCCl; 3-MeOcBu; CH/N; S]
19 | < 500 nM | CC#CCN1C(=O)c2ccccc2Sc2cc(NC3CC(O)C3)cnc21 (stereo not drawn) [Table 6: —CH2CCMe; 3-HOcBu; CH/N; S]
20 | < 500 nM | C#CCN1C(=O)c2ccccc2Sc2cc(NC3CC(COC)C3)cnc21 (stereo not drawn) [Table 6: —CH2CCH; 3-MeOCH2-cBu; CH/N; S]

Same assay, conditions: Table 7; cell viability assay, CellTiter-Glo, 72 hours; scaffold drawing 42 with R^2, R^3, X/Y, Z; read-out: Activity

Row | Compound | IC50
21 | CCCC=CCN1C(=O)c2ccccc2Sc2cc(NC(=O)c3ccoc3)ccc21 [—CH2CH═CHPr; furan-3-yl; CH/CH; S] | < 500 nM
22 | COCCN1C(=O)c2ccccc2Sc2cc(NC(=O)c3ccncc3)ccc21 [—(CH2)2OMe; pyrid-4-yl; CH/CH; S] | 1000 to 5000 nM

Other lines, results leading:

Row | IC50 | Compound
23 | 1000 to 5000 nM | COCCN1C(=O)c2ccccc2Sc2cc(NC(=O)c3cccc(C#N)c3)ccc21 [—(CH2)2OMe; 3-CNPh; CH/CH; S]
24 | 1000 to 5000 nM | CNC(=O)CCCCCN1C(=O)c2ccccc2Sc2cc(NC(=O)c3ccoc3)ccc21 [—(CH2)5CONHMe; furan-3-yl; CH/CH; S]
25 | 1000 to 5000 nM | COCCN1C(=O)c2ccccc2Sc2cc(NC(=O)c3ccc(F)c(F)c3)ccc21 [—(CH2)2OMe; 3,4-F2Ph; CH/CH; S]
26 | < 500 nM | COCCN1C(=O)c2ccccc2Sc2cc(NC(=O)c3ccccc3OC)ccc21 [—(CH2)2OMe; 2-MeOPh; CH/CH; S]

Same assay, conditions: Table 8; analogs of scaffold drawing 43 defined by R^2, R^3, X/Y, W; read-out: Activity (IC50 class, cell viability assay)

Row | Compound | IC50
27 | CC#CCN1C(=O)c2ccccc2Sc2cc(NC(=O)C34CC(C3)C4)cnc21 | < 500 nM
28 | O=C(CC1COC1)Nc1cnc2c(c1)Sc1ccccc1C(=O)N2CC#CC1CC1 [—CH2CC^cPr; (oxetan-3-yl)CH2; CH/CH; N] | < 500 nM
29 | CC#CCN1C(=O)c2ccccc2Sc2cc(NC(=O)C3CC4(COC4)C3)cnc21 | < 500 nM
30 | CC#CCN1C(=O)c2ccc(F)cc2Sc2cc(NC(=O)C3CCCO3)cnc21 (stereo not drawn) [—CH2CCMe; tetrahydrofuran-2-yl; CF/CH; N] | < 500 nM
31 | CC#CCN1C(=O)c2ccc(F)cc2Sc2cc(NC(=O)c3ccc4scnc4c3)ccc21 | < 500 nM
32 | CC#CCN1C(=O)c2ccccc2Sc2cc(NC(=O)C=CCO)ccc21 [—CH2CCMe; CH—CHCH2OH; CH/CH; CH] | < 500 nM
33 | CC#CCN1C(=O)c2cc(F)ccc2Sc2cc(NC(=O)C=CCOC)cnc21 [—CH2CCMe; CH—═CHCH2OMe; CH/CF; N] | < 500 nM
34 | CC#CCN1C(=O)c2ccc(Cl)cc2Sc2cc(NC(=O)C=CCOC)cnc21 [—CH2CCMe; CH—═CHCH2OMe; CCl/CH; N] | < 500 nM
35 | COCC=CC(=O)Nc1ccc2c(c1)Sc1ccccc1C(=O)N2CC#CC(F)(F)F [—CH2CCCF3; CH═CHCH2OMe; CH/CH; CH] | < 500 nM
36 | CC#CCN1C(=O)c2ccc(Cl)cc2Sc2cc(NC(=O)C3CC4(CC(=NO)C4)C3)ccc21 (stereo not drawn) | < 500 nM
37 | CC#CCN1C(=O)c2cc(F)ccc2Sc2cc(NC(=O)C3CC3C(=O)OC)ccc21 (racemic) [—CH2CCMe; trans-2-MeO2C-cPr; CH/CF; CH] | < 500 nM

The next lines start with the values.

Row | IC50 | Compound
38 | < 500 nM | C#CCN1C(=O)c2ccc(Cl)cc2Sc2cc(NC(=O)[C@@H]3C[C@H]3CO)ccc21 (relative stereo) [—CH2CCH; trans-2-HOCH2-cPr; CCI/CH; CH]
39 | < 500 nM | CC#CCN1C(=O)c2cc(F)ccc2Sc2cc(NC(=O)C3CC3COC)ccc21 (stereo not drawn) [—CH2CCMe; trans-2-MeOCH2-cPr; CH/CF; CH]
40 | < 500 nM | N#CC12CC(C(=O)Nc3cnc4c(c3)Sc3ccccc3C(=O)N4CC#CC3CC3)(C1)C2
41 | < 500 nM | CC#CCN1C(=O)c2ccccc2Sc2cc(NC(=O)[C@@H]3C[C@H]3COC)cnc21 (relative stereo) [—CH2CCMe; trans-2-MeOCH2-cPr; CH/CH; N]
42 | < 500 nM | CC#CCN1C(=O)c2cc(F)ccc2Sc2cc(NC(=O)CCCO)ccc21 [—CH2CCMe; (CH2)3OH; CH/CF; CH]

Same assay, conditions: Table 9; HCT116, 72 hours; read-out: Activity

Row | IC50 | Compound
43 | < 500 nM | CC#CCN1C(=O)c2ccccc2C(C)(O)c2cc(NC(=O)[C@H]3C[C@H](OC)C3)ccc21 (stereo partly drawn) [Table 9: —CH2CCMe; trans-3-MeOcBu; CMeOH]
44 | < 500 nM | CC#CCN1C(=O)c2ccccc2C(C)c2cc(NC(=O)C3CC4(CC(=NO)C4)C3)ccc21 (stereo not drawn)
45 | < 500 nM | COCC=CC(=O)Nc1ccc2c(c1)C(C)c1ccccc1C(=O)N2CC#CC1CC1 (stereo not drawn) [Table 9: —CH2CC^cPr; CH═CHCH2OMe; CHMe]
